Some test systems named below: RXF 393 renal; SK-MEL-2 melanoma; SNB-75 CNS; 786-0 renal; IGROV1 ovarian; OVCAR-5 ovarian; HOP-62 NSCLC; OVCAR-8 ovarian; CCRF-CEM leukemia; NCI-H522 lung.
Common to all, as to assay: NCI-60 cell line screen, 48 h

GI50 and TGI data for 9 molecules are collected here from PubChem BioAssay (NCI).

SMILES strings stand for the structures.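 Values below derive from 48-hour exposures of cells grown in 96-well plates, with endpoints linearly interpolated between the two concentrations bracketing the appropriate inhibition level. At the GI50, growth is halved. TGI: total growth inhibition.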

For the molecule `C[C@@H]1N=C(c2ccc(Br)cc2)Nc2nc3ccccn3c2C1=O`, the GI50 in the assay with RXF 393 renal is 10.2 µM; in the assay with SK-MEL-2 melanoma it was 15.7 µM; with SNB-75 CNS, 703 nM; in the assay on 786-0 renal it was 23.8 µM; with IGROV1 ovarian, 51.9 µM; in the assay with OVCAR-5 ovarian it was 23.5 µM. Besides, the GI50 is 5.75 µM with HOP-62 NSCLC, 17 µM in the assay on OVCAR-8 ovarian, 6.56 µM in the assay on CCRF-CEM leukemia and 3.24 µM in the assay with NCI-H522 lung. For the same molecule, the TGI with RXF 393 renal was 51.7 µM; in the assay on SK-MEL-2 melanoma, greater than 100 µM; in the assay with SNB-75 CNS it was 7.06 µM; in the assay on 786-0 renal, greater than 100 µM; with IGROV1 ovarian it was greater than 100 µM; in the assay with OVCAR-5 ovarian, greater than 100 µM. Moreover, the TGI in the assay with HOP-62 NSCLC is greater than 100 µM; with OVCAR-8 ovarian, greater than 100 µM; with CCRF-CEM leukemia, greater than 100 µM; in the assay on NCI-H522 lung, 18.4 µM.

Turning to `c1ccc2c(c1)-c1ccccc1C2N1CC2CCC(CC2)C1`, the TGI in the assay with RXF 393 renal was 33.7 µM; in the assay with SK-MEL-2 melanoma it was 30.7 µM; in the assay with SNB-75 CNS, 61.4 µM; with 786-0 renal, greater than 100 µM; in the assay on IGROV1 ovarian, 69.8 µM; in the assay with OVCAR-5 ovarian it was 37.2 µM. Moreover, the TGI with HOP-62 NSCLC was 62 µM; with OVCAR-8 ovarian, greater than 100 µM; in the assay on CCRF-CEM leukemia, 35.8 µM; in the assay with NCI-H522 lung, 28.5 µM.

Regarding `C=CCN1C=CC(=O)[C@H](O[Si](C)(C)C(C)(C)C)[C@@H]1/C=C/c1ccccc1`, the GI50 with RXF 393 renal is 19 µM; with SK-MEL-2 melanoma it was 17 µM; in the assay with SNB-75 CNS it was 10500 nM; in the assay on 786-0 renal, 15.4 µM; with IGROV1 ovarian, 17.1 µM; in the assay on OVCAR-5 ovarian, 17.5 µM. Moreover, the GI50 with HOP-62 NSCLC is 15.1 µM; in the assay on OVCAR-8 ovarian, 30.6 µM; with CCRF-CEM leukemia it was 15.2 µM; in the assay on NCI-H522 lung it was 13 µM. The TGI was determined as 46.1 µM with RXF 393 renal; 34.2 µM in the assay with SK-MEL-2 melanoma; 22.7 µM in the assay with SNB-75 CNS; 29.4 µM in the assay with 786-0 renal; 34 µM with IGROV1 ovarian; 31.9 µM in the assay with OVCAR-5 ovarian. Also, the TGI was 28.9 µM in the assay on HOP-62 NSCLC, greater than 100 µM in the assay on OVCAR-8 ovarian, 40.1 µM with CCRF-CEM leukemia and 28.3 µM with NCI-H522 lung.

For `CCn1c(O)c(C=N)c(=O)n(CC)c1=O`, the TGI in the assay on RXF 393 renal, with SK-MEL-2 melanoma, with SNB-75 CNS, in the assay on 786-0 renal, in the assay on IGROV1 ovarian and with OVCAR-5 ovarian was greater than 100 µM each time. Further, the TGI in the assay with HOP-62 NSCLC, in the assay on OVCAR-8 ovarian, with CCRF-CEM leukemia and in the assay on NCI-H522 lung was greater than 100 µM throughout.

Turning to `CCOC(=O)C1=C(Nc2ccc(Cl)cc2Cl)OC/C1=N\NS(=O)(=O)c1ccc(C)cc1`, the TGI with RXF 393 renal, in the assay on SK-MEL-2 melanoma, in the assay with SNB-75 CNS, in the assay with 786-0 renal, in the assay with IGROV1 ovarian and with OVCAR-5 ovarian was greater than 100 µM in each case. Moreover, the TGI in the assay on HOP-62 NSCLC, with OVCAR-8 ovarian, with CCRF-CEM leukemia and with NCI-H522 lung was greater than 100 µM in each case.

On to `COc1cc2c(cc1OCCCCCCN1CCN(c3ncnc4ccccc34)CC1)N=CC1CCCN1C2=O` (centres undefined), for which the GI50 with RXF 393 renal is 0.146 µM; in the assay with SK-MEL-2 melanoma it was 0.195 µM; with SNB-75 CNS, 40.7 nM; in the assay with 786-0 renal, 0.141 µM; with IGROV1 ovarian, 0.0602 µM; in the assay with OVCAR-5 ovarian, 0.29 µM. Also, the GI50 was 0.29 µM with HOP-62 NSCLC, 0.188 µM in the assay with OVCAR-8 ovarian, 0.026 µM with CCRF-CEM leukemia and less than 0.0145 µM with NCI-H522 lung. The TGI in the assay with RXF 393 renal stood at 0.325 µM; in the assay with SK-MEL-2 melanoma, 1.83 µM; in the assay on SNB-75 CNS, 0.256 µM; with 786-0 renal, 0.649 µM; in the assay with IGROV1 ovarian, 0.209 µM; in the assay with OVCAR-5 ovarian it was 13.4 µM. Besides, the TGI came out at 3.82 µM in the assay with HOP-62 NSCLC, 0.302 µM with CCRF-CEM leukemia and 0.135 µM in the assay on NCI-H522 lung.

Take `Cc1cc2cc3c(C)cc(=O)oc3c(C)c2o1`: the TGI in the assay with RXF 393 renal, in the assay with SK-MEL-2 melanoma, in the assay with SNB-75 CNS, in the assay on 786-0 renal, with IGROV1 ovarian and with OVCAR-5 ovarian was greater than 100 µM throughout. In addition, the TGI in the assay on HOP-62 NSCLC, in the assay on OVCAR-8 ovarian, with CCRF-CEM leukemia and in the assay on NCI-H522 lung was greater than 100 µM each time.

With `NC(=S)N/N=C(\C(=O)Nc1cccc([N+](=O)[O-])c1)c1nc2ccc([N+](=O)[O-])cc2[nH]c1=O`, the TGI in the assay on RXF 393 renal, in the assay on SK-MEL-2 melanoma, in the assay on SNB-75 CNS, with 786-0 renal, in the assay on IGROV1 ovarian and in the assay on OVCAR-5 ovarian was greater than 100 µM in each case. The TGI was greater than 100 µM with HOP-62 NSCLC, greater than 100 µM in the assay on OVCAR-8 ovarian, greater than 100 µM with CCRF-CEM leukemia and 53 µM in the assay with NCI-H522 lung.

Turning to `C[C@]12CC[C@H](OCCC#N)CC1=CC[C@@H]1C2CC[C@]2(C)/C(=N/OCCC#N)CCC12` (some centres undefined), the TGI with RXF 393 renal is greater than 73.9 µM; in the assay on SK-MEL-2 melanoma, greater than 100 µM; in the assay on SNB-75 CNS, greater than 78.9 µM; in the assay on 786-0 renal, greater than 76.6 µM; in the assay on IGROV1 ovarian, greater than 100 µM; in the assay on OVCAR-5 ovarian it was greater than 100 µM. Moreover, the TGI in the assay with HOP-62 NSCLC, in the assay with OVCAR-8 ovarian, in the assay on CCRF-CEM leukemia and in the assay with NCI-H522 lung was greater than 100 µM in each case.
